From US20030118577A1, “Use of analogues of superoxide dismutase for treating hepatocellular insufficiencies” (priority 2000, published 2003)

Legend:
[1] = system: acute hepatic insufficiency induced by anti-Fas antibodies; assay: Survival of mice after injection of anti-Fas antibody (fulminant hepatitis); type: in vivo; conditions: at 24 hours; 6 μg anti-Fas antibody iv; MnTBAP 10 mg/kg 2 hours beforehand; FIG. 3
Procedure: The injection of these antibodies into mice causes fulminant hepatitis due to a massive apoptosis of the hepatocytes, causing the death of the mice within a few hours following the injection [OGASAWARA et al., Nature, 364, pp. 806-809, (1993); NAGATA, Prog. Mol. Subcell. Biol., 16, pp. 87-103, (1996)].
27 control mice received, by intravenous injection, 6 μg of an anti-Fas monoclonal antibody (clone J02; PHARMINGEN) diluted in 100 μl of physiological saline; a second group of 15 mice received the same treatment, preceded by the administration, 2 hours beforehand, of 10 mg/kg of MnTBAP, as described in Example 1 above; a control group received MnTBAP alone (10 mg/kg).

[2] = system: hepatocellular insufficiency induced by chronic intoxication with DMNA; assay: Chronic intoxication with DMNA, histological examination; type: in vivo, mice
Procedure: The inventors also investigated the effects of MnSOD mimetics on hepatocellular insufficiency of toxic origin which can be induced in particular by alcohol, using an experimental model of intoxication with dimethylnitrosamine (DMNA) administered at the dose of 10 mg/kg in mice. This model is similar to intoxication with alcohol because the lesions induced by DMNA and alcohol are identical.
Intraperitoneal administration of 10 mg/kg/day of DMNA three times per week induces, in dogs and rodents, centrolobular and periportal lesions comprising fibrosis at the 4th week, and cirrhosis at the 13th week [RISTELLI et al., J. Biochem., 158, 361-367, (1976); MADDEN et al., Surgery, 68, 260-267, (1970)].

[3] = system: acute hepatic insufficiency induced by acetaminophen; assay: Assay of serum transaminases ALAT and ASAT after acetaminophen; type: in vivo, mice; conditions: MnTBAP 10 mg/kg 2 h before, after 24 hours
Procedure: The serum transaminases ALAT and ASAT are assayed 12 hours and 24 hours after the administration of acetaminophen.
Since the results risked being biased by the fact that the mice surviving 24 hours after the administration of acetaminophen were probably, regardless of the group involved, those which had the lowest transaminase activity, a second series of experiments were carried out, administering 500 mg/kg of acetaminophen, the other experimental conditions remaining the same. At this dosage, all the mice were still alive after 24 hours.
The results are illustrated by FIGS. 2A and 2B, which represent the ASAT and ALAT activity, respectively, according to the products administered.

[4] = system: acute hepatic insufficiency induced by acetaminophen; assay: Survival of mice after intraperitoneal acetaminophen (acute hepatic insufficiency); conditions: for rate of survival: 24 hours after acetaminophen 1000 mg/kg ip, FIG. 1
Procedure: The intraperitoneal injection of acetaminophen into mice induces a severe hepatotoxicity, the degree of which may be evaluated by the survival of the animals, measuring transaminase activities, and macroscopic and microscopic examination of the livers.
The acetaminophen in solution at 100 mg/ml in PBS at pH 7.4 is administered by the intraperitoneal route.
In a first series of experiments, a group of mice received a dose of 1000 mg/kg of acetaminophen; a second group received a dose of 1000 mg/kg of acetaminophen and a dose of 10 mg/kg of MnTBAP administered either 2 h before the acetaminophen or 6 h after; a control group received either MnTBAP alone (10 mg/kg), or PBS alone.
The survival of the animals is monitored for 24 hours after the administration of acetaminophen.
The effect of N-acetyl-L-cysteine (NAC), of CuDIPS, and of MnTBAP on the survival of mice after intraperitoneal injection of 1000 mg/kg of acetaminophen (APAP) was compared.
MnTBAP, NAC, or CuDIPS are administered in the form of a bolus, preventively, 2 hours before (P) or, curatively, 6 hours after (C) the acetaminophen.
The survival of the animals is monitored for 24 hours after administration of acetaminophen.

O=C(O)c1ccc(-c2c3nc(c(-c4ccc(C(=O)O)cc4)c4ccc([n-]4)c(-c4ccc(C(=O)O)cc4)c4nc(c(-c5ccc(C(=O)O)cc5)c5ccc2[n-]5)C=C4)C=C3)cc1.[Mn+3] [MnTBAP, Mn(III) tetrakis(5,10,15,20-benzoic acid)porphyrin]
rate of survival [1]: ~60%
appearance of hepatic lesions on histological sections ([2]; DMNA 10 mg/kg in mice, different intoxication times): delays the appearance of hepatic lesions
constitution of fibrosis on histological examination ([2]; DMNA 10 mg/kg/day ip three times per week, MnTBAP 10 mg/kg ip 24 hours after each DMNA): prevents the constitution of objectively viable fibrosis
transaminase activities (ASAT, ALAT), fold lower than without MnTBAP ([3]; acetaminophen 500 mg/kg (APAP500)): 10 fold
transaminase activities (ASAT, ALAT), fold lower than without MnTBAP ([3]; acetaminophen 1000 mg/kg (APAP1000)): 6 fold
rate of survival ([4]; MnTBAP 10 mg/kg ip 2 h before acetaminophen): ~60%
rate of survival ([4]; MnTBAP 10 mg/kg ip 6 h after acetaminophen): greater than 40%
effect on survival rate, administered preventively ([4]; APAP 1000 mg/kg, 2 hours before (P)): increases the survival rate in a manner at least equal to NAC
activity on survival, curative versus preventive administration ([4]; APAP 1000 mg/kg, 6 hours after (C) or 2 hours before (P)): active when it is administered curatively
activity on survival by the oral route ([4]; APAP 1000 mg/kg, per os): active
percentage of surviving animals ([4]; Group II: MnTBAP 10 mg/kg alone, no APAP, time 0 h): 100%
percentage of surviving animals ([4]; Group II: MnTBAP 10 mg/kg alone, no APAP, time 6 h): 100%
percentage of surviving animals ([4]; Group II: MnTBAP 10 mg/kg alone, no APAP, time 8 h): 100%
percentage of surviving animals ([4]; Group II: MnTBAP 10 mg/kg alone, no APAP, time 9 h): 100%
percentage of surviving animals ([4]; Group II: MnTBAP 10 mg/kg alone, no APAP, time 10 h): 100%
percentage of surviving animals ([4]; Group II: MnTBAP 10 mg/kg alone, no APAP, time 11 h): 100%
percentage of surviving animals ([4]; Group II: MnTBAP 10 mg/kg alone, no APAP, time 12 h): 100%
percentage of surviving animals ([4]; Group II: MnTBAP 10 mg/kg alone, no APAP, time 13 h): 100%
percentage of surviving animals ([4]; Group II: MnTBAP 10 mg/kg alone, no APAP, time 14 h): 100%
percentage of surviving animals ([4]; Group II: MnTBAP 10 mg/kg alone, no APAP, time 15 h): 100%
percentage of surviving animals ([4]; Group II: MnTBAP 10 mg/kg alone, no APAP, time 16 h): 100%
percentage of surviving animals ([4]; Group II: MnTBAP 10 mg/kg alone, no APAP, time 17 h): 100%
percentage of surviving animals ([4]; Group II: MnTBAP 10 mg/kg alone, no APAP, time 18 h): 100%
percentage of surviving animals ([4]; Group II: MnTBAP 10 mg/kg alone, no APAP, time 20 h): 100%
percentage of surviving animals ([4]; Group II: MnTBAP 10 mg/kg alone, no APAP, time 22 h): 100%
percentage of surviving animals ([4]; Group II: MnTBAP 10 mg/kg alone, no APAP, time 24 h): 100%
percentage of surviving animals ([4]; Group IX: APAP 1000 mg/kg, MnTBAP 50 mg/kg (P) per os, time 0 h): 100%
percentage of surviving animals ([4]; Group IX: APAP 1000 mg/kg, MnTBAP 50 mg/kg (P) per os, time 6 h): 100%
percentage of surviving animals ([4]; Group IX: APAP 1000 mg/kg, MnTBAP 50 mg/kg (P) per os, time 8 h): 88.8%
percentage of surviving animals ([4]; Group IX: APAP 1000 mg/kg, MnTBAP 50 mg/kg (P) per os, time 9 h): 88.8%
percentage of surviving animals ([4]; Group IX: APAP 1000 mg/kg, MnTBAP 50 mg/kg (P) per os, time 10 h): 88.8%
percentage of surviving animals ([4]; Group IX: APAP 1000 mg/kg, MnTBAP 50 mg/kg (P) per os, time 11 h): 88.8%
percentage of surviving animals ([4]; Group IX: APAP 1000 mg/kg, MnTBAP 50 mg/kg (P) per os, time 12 h): 88.8%
percentage of surviving animals ([4]; Group IX: APAP 1000 mg/kg, MnTBAP 50 mg/kg (P) per os, time 13 h): 88.8%
percentage of surviving animals ([4]; Group IX: APAP 1000 mg/kg, MnTBAP 50 mg/kg (P) per os, time 14 h): 88.8%
percentage of surviving animals ([4]; Group IX: APAP 1000 mg/kg, MnTBAP 50 mg/kg (P) per os, time 15 h): 88.8%
percentage of surviving animals ([4]; Group IX: APAP 1000 mg/kg, MnTBAP 50 mg/kg (P) per os, time 16 h): 88.8%
percentage of surviving animals ([4]; Group IX: APAP 1000 mg/kg, MnTBAP 50 mg/kg (P) per os, time 17 h): 77.7%
percentage of surviving animals ([4]; Group IX: APAP 1000 mg/kg, MnTBAP 50 mg/kg (P) per os, time 18 h): 66.6%
percentage of surviving animals ([4]; Group IX: APAP 1000 mg/kg, MnTBAP 50 mg/kg (P) per os, time 20 h): 66.6%
percentage of surviving animals ([4]; Group IX: APAP 1000 mg/kg, MnTBAP 50 mg/kg (P) per os, time 22 h): 66.6%
percentage of surviving animals ([4]; Group IX: APAP 1000 mg/kg, MnTBAP 50 mg/kg (P) per os, time 24 h): 66.6%
percentage of surviving animals ([4]; Group V: APAP 1000 mg/kg, MnTBAP 10 mg/kg (P), time 0 h): 100%
percentage of surviving animals ([4]; Group V: APAP 1000 mg/kg, MnTBAP 10 mg/kg (P), time 6 h): 100%
percentage of surviving animals ([4]; Group V: APAP 1000 mg/kg, MnTBAP 10 mg/kg (P), time 8 h): 100%
percentage of surviving animals ([4]; Group V: APAP 1000 mg/kg, MnTBAP 10 mg/kg (P), time 9 h): 91.4%
percentage of surviving animals ([4]; Group V: APAP 1000 mg/kg, MnTBAP 10 mg/kg (P), time 10 h): 88.6%
percentage of surviving animals ([4]; Group V: APAP 1000 mg/kg, MnTBAP 10 mg/kg (P), time 11 h): 77.1%
percentage of surviving animals ([4]; Group V: APAP 1000 mg/kg, MnTBAP 10 mg/kg (P), time 12 h): 74.3%
percentage of surviving animals ([4]; Group V: APAP 1000 mg/kg, MnTBAP 10 mg/kg (P), time 13 h): 74.3%
percentage of surviving animals ([4]; Group V: APAP 1000 mg/kg, MnTBAP 10 mg/kg (P), time 14 h): 71.4%
percentage of surviving animals ([4]; Group V: APAP 1000 mg/kg, MnTBAP 10 mg/kg (P), time 15 h): 71.4%
percentage of surviving animals ([4]; Group V: APAP 1000 mg/kg, MnTBAP 10 mg/kg (P), time 16 h): 68.6%
percentage of surviving animals ([4]; Group V: APAP 1000 mg/kg, MnTBAP 10 mg/kg (P), time 17 h): 68.6%
